Measurements reported in US20230248626A1, “Compositions Comprising (Bio)-Alkanediols” (Symrise AG, priority 0001, published 2023).
Read-outs that look alike come from different tables or passages of the source.

Columns and labels:
Aspergillus brasiliensis = assay: MIC and Kull synergy index of 1,2-/2,3-alkanediol mixtures; format: cell-based
[1] = Sensory evaluation on the backside of the hand (spreading, fatty/greasy skin feel, absorption), untrained panellists; conditions: for Absorption/remaining residue with alkanediol: scale 1 to 5
Method: For evaluating the sensory behaviour, liquid lipophilic components specified in the following table were blended with 1,2-heptanediol or 2,3-heptanediol or a mixture of 1,2-heptanediol and 2,3-heptanediol or 1,2-octanediol or 2,3-octanediol or a mixture of 1,2-octanediol and 2,3-octanediol (formulation) in a ratio of 85:15 and assessed by untrained panellists in comparison to the liquid lipophilic component without addition of the specified alkanediols (placebo).
The test procedure was carried as follows: For evaluating the sensory behaviour of 1,2-alkanediols and/or 2,3-alkanediols in combination with different liquid lipophilic components, oil components specified in the following table were blended with a 1,2-alkanediol or a 2,3-alkanediol or a mixture including a 1,2-alkanediol and a 2,3-alkanediol in a ratio as specified in Table 53 and assessed by untrained panellists in comparison to the liquid lipophilic component without addition of the 1,2-alkanediol or 2,3-alkanediol or the mixture including a 1,2-alkanediol and 2,3-alkanediol (placebo).
Test Procedure: • Hands were pre-washed with liquid soap by following a defined procedure; 30 μl of corresponding sample was applied on the backside of each hand (randomized); • After 30 s the spreading behaviour of the respective formulation on skin was evaluated versus the respective oil component without 1,2-heptanediol on a scale from 1 to 5 (1=low spreading; 5=high spreading); • The samples were distributed with the fingertips of middle and forefinger with 2×5 cycles; • After 2 minutes, the fatty/greasy skin feel was evaluated on a scale from 1 to 5 (1=low fatty/greasy skin feel; 5=high fatty/greasy skin feel); • Furthermore the applicants were asked to assess the absorption, i.e. the impression of amount of remaining residue on the skin on a scale from 1 to 5 (1=low absorption; 5=high absorption).

human sebaceous glands = assay: Sebum production of micro-dissected, cultured human sebaceous glands (lipids/proteins after six days); format: cell-based; design: sebum reduction: concentration or dose not given beside the values; conditions: compared to untreated control; six days; single donor (FIG. 4)
Method: Additional tests were performed with human sebaceous glands in order to verify the modulatory activity of different 1,2-alkanediols and 2,3-alkanediols on sebum secretion. Several microbial species on the skin are lipid dependent and feed on the human sebum (e.g. Corynebacterium, Propionibacterium). Accordingly, sebum reduction can indirectly support the reduction of microorganisms on the skin and in this way also indirectly support e.g. dandruff or acne reduction.
For these experiments sebaceous glands had been micro-dissected and cultured with medium. The medium without any supplement served as untreated control. Medium with 5 μM Capsaicin served as positive control. Additionally, culture medium was supplemented with different concentrations of alkanediols. After six days the sebaceous glands were collected and lipids and proteins quantified. The total lipid amount being representative of sebum production was obtained by normalizing the quantified lipids upon the quantified proteins (i.e. mg of lipids/mg of proteins).

[2] = system: reactive oxygen species (ROS) on ex vivo skin; assay: DCF assay, ROS score on ex vivo skin, aqueous/alcoholic (ethanolic) test system; format: cell-based; conditions: vehicle (EtOH/H2O) plus alkanediol only
Method: A dichlorofluorescein test (DCF) assay was performed in order to determine the amount of reactive oxygen species (ROS) on ex vivo skin treated with different test samples in a lipophilic or an aqueous/alcoholic system as described below.
DCF assay—assay principle: Ex vivo skin was incubated with 2′,7′-dichlorodihydrofluorescein diacetate at 37° C., 5% CO2. After PBS washing, samples were exposed or not to cumene hydroperoxide. Immediately after exposure, ex vivo skin samples were frozen in liquid nitrogen and 5 μm cryostat sections were made and fixed with acetone to allow the visualisation of fluorescence generated by ROS in cells of the reconstructed skins. The resulting fluorescence was measured at EX/EM 504/524 nm. Green fluorescence was quantified in ex vivo skin using ImageJ software. The depth of immunostaining was measured as follows: green DCFH-DE positive cells were automatically detected using Histolab software and the distance between dermal epidermal junction and the deepest positive cells were measured in each condition. Means were compared using a student's test. […]
The image acquisition was performed by using Olympus BX51 microscope and Olympus DP70 camera. For each skin sample two skin sections have been taken and the related fluorescent images acquired and analyzed. Thus, for each test condition, 12 images have been acquired and analyzed (i.e. 12 data). […]

[3] = blend with Argan Oil vs without
[4] = blend with Avocado Oil vs without
[5] = blend with Cacao butter vs without
[6] = blend with Caprylic Capric Triglyceride (neutral oil), rows r50-r56, vs without
[7] = blend with Caprylic Capric Triglyceride (neutral oil), rows r50-r56
[8] = blend with Castor Oil vs without
[9] = blend with Cetearyl Nonanoate, rows r199-r201, vs without
[10] = blend with Cetearyl Nonanoate, rows r199-r201
[11] = blend with Coconut Oil vs without
[12] = blend with Grapeseed Oil vs without
[13] = blend with Helianthus Annuus (Sunflower) Seed Oil vs without
[14] = blend with Helianthus Annuus (Sunflower) Seed Oil
[15] = blend with Octocrylene (Neo Heliopan 303), vs without
[16] = blend with Octocrylene (Neo Heliopan 303)
[17] = blend with Olive Oil vs without
[18] = single 2,3-alkanediol, read-out: MIC Component B

## CCCCCC(O)CO (centres unmarked) [1,2-heptanediol]
Aspergillus brasiliensis; single 1,2-alkanediol, read-out: MIC Component A
  MIC: 5000 µg/mL
[1]; [3]
  Absorption/remaining residue Delta: 1
[1]; blend with Argan Oil
  Absorption/remaining residue with alkanediol: 2.8
[1]; [4]
  Absorption/remaining residue Delta: 1.2
[1]; blend with Avocado Oil
  Absorption/remaining residue with alkanediol: 2.6
[1]; blend with Butyrospermum Parkii (Shea) Butter vs without
  Absorption/remaining residue Delta: 1.5
[1]; blend with Butyrospermum Parkii (Shea) Butter
  Absorption/remaining residue with alkanediol: 2.7
[1]; [5]
  Absorption/remaining residue Delta: 0
[1]; blend with Cacao butter
  Absorption/remaining residue with alkanediol: 3.6
[1]; [6]
  Absorption/remaining residue Delta: 0.6
[1]; [7]
  Absorption/remaining residue with alkanediol: 2.7
[1]; [8]
  Absorption/remaining residue Delta: 0.4
[1]; blend with Castor Oil
  Absorption/remaining residue with alkanediol: 4
[1]; blend with Cetearyl Nonanoate (SymMollient S), row r161, vs without
  Absorption/remaining residue Delta: 1.2
[1]; blend with Cetearyl Nonanoate (SymMollient S), row r161
  Absorption/remaining residue with alkanediol: 2
[1]; [9]
  Absorption/remaining residue Delta: 1.6
[1]; [10]
  Absorption/remaining residue with alkanediol: 3.2
[1]; blend with Chlorella oil (biotech) vs without
  Absorption/remaining residue Delta: 0.2
[1]; blend with Chlorella oil (biotech)
  Absorption/remaining residue with alkanediol: 3
[1]; [11]
  Absorption/remaining residue Delta: 1.4
[1]; blend with Coconut Oil
  Absorption/remaining residue with alkanediol: 2
[1]; blend with Ethylhexyl Methoxycinnamate (Neo Heliopan AV) vs without
  Absorption/remaining residue Delta: 0.5
[1]; blend with Ethylhexyl Methoxycinnamate (Neo Heliopan AV)
  Absorption/remaining residue with alkanediol: 3
[1]; blend with Ethylhexyl Salicylate (Neo Heliopan OS) vs without
  Absorption/remaining residue Delta: 1.3
[1]; blend with Ethylhexyl Salicylate (Neo Heliopan OS)
  Absorption/remaining residue with alkanediol: 2.2
[1]; [12]
  Absorption/remaining residue Delta: 0.2
[1]; blend with Grapeseed Oil
  Absorption/remaining residue with alkanediol: 2.8
[1]; [13]
  Absorption/remaining residue Delta: 1.3
[1]; [14]
  Absorption/remaining residue with alkanediol: 2
[1]; blend with Hexyldecanol (Eutanol G) vs without
  Absorption/remaining residue Delta: 0.2
[1]; blend with Hexyldecanol (Eutanol G)
  Absorption/remaining residue with alkanediol: 2.7
[1]; blend with Homosalate (Neo Heliopan HMS) vs without
  Absorption/remaining residue Delta: 0.3
[1]; blend with Homosalate (Neo Heliopan HMS)
  Absorption/remaining residue with alkanediol: 2.5
[1]; blend with Isoamyl p-Methoxycinnamate (Neo Heliopan E 1000) vs without
  Absorption/remaining residue Delta: 1.7
[1]; blend with Isoamyl p-Methoxycinnamate (Neo Heliopan E 1000)
  Absorption/remaining residue with alkanediol: 2.5
[1]; blend with Microalgae oil vs without
  Absorption/remaining residue Delta: 1.2
[1]; blend with Microalgae oil
  Absorption/remaining residue with alkanediol: 2.5
[1]; blend with Octocrylene (Neo Heliopan 303), row r184 (UV filter), vs without
  Absorption/remaining residue Delta: 1.3
[1]; blend with Octocrylene (Neo Heliopan 303), row r184 (UV filter)
  Absorption/remaining residue with alkanediol: 2.7
[1]; [15]
  Absorption/remaining residue Delta: 0.5
[1]; [16]
  Absorption/remaining residue with alkanediol: 3.5
[1]; [17]
  Absorption/remaining residue Delta: 1.6
[1]; blend with Olive Oil
  Absorption/remaining residue with alkanediol: 2.4
[1]; blend with Propanediol Dicaprylate/Dicaprate (Symollient PDCC) vs without
  Absorption/remaining residue Delta: 0.1
[1]; blend with Propanediol Dicaprylate/Dicaprate (Symollient PDCC)
  Absorption/remaining residue with alkanediol: 2.4
[1]; blend with Prunus Amygdalus Dulcis (Sweet Almond) Oil vs without
  Absorption/remaining residue Delta: 1.5
[1]; blend with Prunus Amygdalus Dulcis (Sweet Almond) Oil
  Absorption/remaining residue with alkanediol: 2.2
[1]; blend with Simmondsia Chinensis (Jojoba) Seed Oil vs without
  Absorption/remaining residue Delta: 1.2
[1]; blend with Simmondsia Chinensis (Jojoba) Seed Oil
  Absorption/remaining residue with alkanediol: 2.5
Human sebaceous glands
  sebum reduction: 22%
[2]
  antioxidative efficacy without antioxidant (in words): do not have an antioxidative efficacy

## CCCCC(O)C(C)O (centres unmarked) [2,3-heptanediol]
Aspergillus brasiliensis; [18]
  MIC: 7500 µg/mL
[1]; [3]
  Absorption/remaining residue Delta: 1.4
[1]; blend with Argan Oil
  Absorption/remaining residue with alkanediol: 2.4
[1]; [4]
  Absorption/remaining residue Delta: 1.4
[1]; blend with Avocado Oil
  Absorption/remaining residue with alkanediol: 2.4
[1]; [5]
  Absorption/remaining residue Delta: 0.4
[1]; blend with Cacao butter
  Absorption/remaining residue with alkanediol: 3.2
[1]; [6]
  Absorption/remaining residue Delta: 0.3
[1]; [7]
  Absorption/remaining residue with alkanediol: 3
[1]; [8]
  Absorption/remaining residue Delta: 0.6
[1]; blend with Castor Oil
  Absorption/remaining residue with alkanediol: 3.8
[1]; [9]
  Absorption/remaining residue Delta: 1.0
[1]; [10]
  Absorption/remaining residue with alkanediol: 3.8
[1]; [11]
  Absorption/remaining residue Delta: 1
[1]; blend with Coconut Oil
  Absorption/remaining residue with alkanediol: 2.4
[1]; [12]
  Absorption/remaining residue Delta: 0.8
[1]; blend with Grapeseed Oil
  Absorption/remaining residue with alkanediol: 2.2
[1]; [13]
  Absorption/remaining residue Delta: 1
[1]; [14]
  Absorption/remaining residue with alkanediol: 2.6
[1]; [15]
  Absorption/remaining residue Delta: 0.5
[1]; [16]
  Absorption/remaining residue with alkanediol: 3.5
[1]; [17]
  Absorption/remaining residue Delta: 2
[1]; blend with Olive Oil
  Absorption/remaining residue with alkanediol: 2
Human sebaceous glands
  sebum reduction: 30%
[2]
  antioxidative efficacy without antioxidant (in words): do not have an antioxidative efficacy

## CCCCCC(O)C(C)O (centres unmarked) [2,3-octanediol]
Aspergillus brasiliensis; [18]
  MIC: 2500 µg/mL
[1]; [3]
  Absorption/remaining residue Delta: 1.6
[1]; blend with Argan Oil
  Absorption/remaining residue with alkanediol: 2.2
[1]; [4]
  Absorption/remaining residue Delta: 1.4
[1]; blend with Avocado Oil
  Absorption/remaining residue with alkanediol: 2.4
[1]; [5]
  Absorption/remaining residue Delta: 0.8
[1]; blend with Cacao butter
  Absorption/remaining residue with alkanediol: 2.8
[1]; [8]
  Absorption/remaining residue Delta: 1.4
[1]; blend with Castor Oil
  Absorption/remaining residue with alkanediol: 3
[1]; [11]
  Absorption/remaining residue Delta: 1.2
[1]; blend with Coconut Oil
  Absorption/remaining residue with alkanediol: 2.6
[1]; [12]
  Absorption/remaining residue Delta: 0.2
[1]; blend with Grapeseed Oil
  Absorption/remaining residue with alkanediol: 2.4
[1]; [13]
  Absorption/remaining residue Delta: 0.4
[1]; [14]
  Absorption/remaining residue with alkanediol: 3.4
[1]; [15]
  Absorption/remaining residue Delta: 1.5
[1]; [16]
  Absorption/remaining residue with alkanediol: 2.5
[1]; [17]
  Absorption/remaining residue Delta: 1.4
[1]; blend with Olive Oil
  Absorption/remaining residue with alkanediol: 2.6
